Measured values as given in patent publication US6100074A, “Mutant mono-oxygenase cytochrome P-450 cam” (BG plc, priority 1994, dated 2000).

What was measured:
[1] = molecular target: T1, wild type P450cam (Pseudomonas putida, UniProt P00183); assay: Kapp (dissociation constant), substrate binding, wild-type; conditions: for Kd: WT, [K+] = 70 mM, phosphate buffer, pH 7.4, average of two measurements
Description: (§1) Binding of potential substrates was investigated by spectroscopic methods.
(§2) ^a Values are the average of two independent measurements using the
(§3) method of Sligar (S. G. Sligar, Biochemistry, 1976, 15, 5399-5406). The
(§4) value of Kapp is strongly dependent on the concentration of K^+
(§5) in the buffer. At [K^+ ] > 150 mM. Kapp for camphor is 0.6 μM
(§6) for both wildtype and Y96A. Data in this table were determined at [K^
(§7) ] = 70 mM in phosphate buffer, pH 7.4, in order to avoid salting out of
(§8) substrates at higher ion concentrations.
(§9) ^b Saturation not reached.

[2] = molecular target: T2, P-450cam mutant Y96A (Pseudomonas putida, UniProt P00183, Y97A); assay: Kapp (dissociation constant), substrate binding, Y96A; conditions: for dissociation constants (Kapp) / affinity, in words: Y96A compared to wild-type
Description: as §1, §2, §3, §4, §5, §6, §7, §8, §9

[3] = molecular target: T2, P-450cam mutant Y96A; format: binding
[4] = molecular target: T2, P-450cam mutant Y96A; assay: Hydroxylation of camphor, Y96A; format: biochemical; conditions: Y96A compared to wild-type
Description: This decrease in selectivity can be attributed to the loss of the hydrogen bond between Y96 and camphor.

[5] = system: P-450cam; conditions: wild-type; cited from earlier work
[6] = molecular target: T1, wild type P450cam; format: binding; conditions: for conversion of haem to high-spin form / shift in absorption spectrum, in words: wild-type
[7] = molecular target: T1, wild type P450cam; assay: biochemical; format: binding; conditions: Wild type; 200 μM DTT, 200 μM test compound, phosphate buffer; read-out: Vs DTT (percentage displacement of DTT bound to P-450)
[8] = molecular target: T2, P-450cam mutant Y96A; format: biochemical; set-up: key: Those substrates where oxidation has been demonstrated by means of NADH turnover are marked with a + sign
[9] = molecular target: T2, P-450cam mutant Y96A; assay: Gas chromatography of incubation products, Y96A; format: biochemical; conditions: 1 mM diphenylmethane, 1 μM P-450cam, 25° C., 30 min
Description: The mutant protein was reconstituted with putidaredoxin and putidaredoxin reductase. Diphenylmethane (5) was added and the mixture was incubated with NADH and oxygen.
(§10) A solution containing 10 μM putidaredoxin, 2 μM putidaredoxin reductase, 1 μM cytochrome P-450cam mono-oyxgenase (wild-type or mutant) and 1 mM diphenylmethane in 100 mM KC1, 20 mM KH2 PO4 pH7.4 was preincubated at 25° C. in a shaker for 5 min. The enzymatic reaction was initiated by firstly adding NADH to a total concentration of 2 mM. Further four aliquots of NADH (to increase the NADH concentration by 1 mM each time) were added in intervals of 5 min and the reaction quenched after 30 min by adding 0.5 ml chloroform. The chloroform layer was analysed by gas chromatography.
Organic extracts of the crude incubation mixture were analysed by gas chromatography. […] The other aromatic hydroxylation products, the ortho and meta isomers, had different retention times. Further confirmation of the identity of the product as structure (6) was provided by mass spectrometry, which gave the correct mass peak at 184.

[10] = molecular target: T3, P450cam mutant Y96A, C334A (Pseudomonas putida, UniProt P00183, C335A/Y97A); format: biochemical, P. putida; conditions: also contains C334A
T3 construct: reconstituted with putidaredoxin and putidaredoxin reductase
Description: as §10
Reaction products for some substrate compounds have been purified by high performance liquid chromatography and identified by mass spectroscopy, nuclear magnetic resonance, and/or co-elution. […] Table 4(a) to 4(h) details the product distributions for mutant and substrate combinations where this has been elucidated to date.
All mutants listed below also contain the C334A mutation.
Turnover rate measured as NADH consumption rate
(nmole NADH/nmole P450cam/s).

[11] = molecular target: T1, wild type P450cam; assay: Turnover rate measured as NADH consumption rate, wild type; format: biochemical, P. putida; set-up: reconstituted with putidaredoxin and putidaredoxin reductase
[12] = molecular target: T2, P-450cam mutant Y96A; assay: biochemical; format: binding; conditions: Mutant Y96A; 200 μM DTT, 200 μM test compound, phosphate buffer; read-out: Vs DTT (percentage displacement of DTT bound to P-450)

SMILES | Kd [1] [µM] | Kd [2] [µM] | dissociation constants (Kapp) / affinity, in words [2] | conversion of haem to high-spin form, in words [3] | conversion of haem to high-spin form / shift in absorption spectrum, in words [6] | inhibition at 200 µM [7] [%] | NADH turnover? [8] | Turnover rate measured as NADH consumption rate [10] | percent displacement of bound DTT at 200 µM [12] [%] | further results
CC12CCC(CC1=O)C2(C)C (stereo not shown) [compound 1, camphor] | 6.3 | 12 | increased | not fully converted to the high-spin form |  |  |  |  |  | hydroxylation selectivity, in words [4]: less selective; hydroxylation to 5-exo-hydroxycamphor, in words [5]: regio- and stereo-selective hydroxylation
O=C1C2CC3CC(C2)CC1C3 [compound 2, adamantanone] | 12 | 28 | increased | not fully converted to the high-spin form | fully converted the haem to the high-spin form |  |  |  |  | 
C1C2CC3CC1CC(C2)C3 [compound 3, adamantane] | 8.4 | 1.4 | reduced |  | fully converted the haem to the high-spin form |  |  |  |  | 
C1CC2CCC1C2 [compound 4, norbornane] | 330 | 92 | reduced |  | fully converted the haem to the high-spin form |  |  |  |  | 
c1ccc(Cc2ccccc2)cc1 [compound 5, diphenylmethane] | > 1500 | 73 | greatly enhanced affinity | partial conversion | did not give a shift in the absorption spectrum | 5 | + |  |  | binding, in words ([1]; wild-type): bound poorly; new product peak by GC (para-hydroxydiphenylmethane (6)) [9]: Only one major new peak
C1CCCCCC1 [cycloheptane] |  |  |  |  |  |  |  | 42.5 nmole NADH/nmole P450cam/s |  | Turnover rate measured as NADH consumption rate [11]: 4.4 nmole NADH/nmole P450cam/s
CCCCCCC [n-Heptane] |  |  |  |  |  | 5 | + | 4.4 nmole NADH/nmole P450cam/s | 40 | ΔSpin high/low (percentage of P-450 converted from low- to high-spin) ([6]; Wild type, 200 μM test compound, phosphate buffer pH 7.4): 5%; Turnover rate measured as NADH consumption rate [11]: 2.7 nmole NADH/nmole P450cam/s
CCCCCCCCC [n-Nonane] |  |  |  |  |  |  | + |  | 45 | 
CCCCCCCC [n-Octane] |  |  |  |  |  | 5 | + | 5.8 nmole NADH/nmole P450cam/s | 45 | 
CCCCC [n-Pentane] |  |  |  |  |  | 5 | + | 5.8 nmole NADH/nmole P450cam/s | 40 | 
